{"source": "patent US20070225337A1", "about": "“Novel Co-Precipitate of Amorphous Rosiglitazone” (SANDOZ AG, priority 2004, published 2007)", "origin": "cited, not measured here", "key": {"[1]": {"conditions": "compared with the corresponding free base"}}}
{"smiles": "CN(CCOc1ccc(CC2SC(=O)NC2=O)cc1)c1ccccn1.O=C(O)/C=C\\C(=O)O", "note": "(centres unmarked) [Rosiglitazone maleate, 5-[4-[2-[N-methyl-N-(2-pyridyl)amino]ethoxy]benzyl]thiazolidine-2,4-dione maleate]", "values": [{"measurement": "stability in the solid form", "result": "good stability in the solid form"}, {"measurement": "solubility in water", "setting": "[1]", "result": "significantly more soluble in water than the corresponding free base"}]}
